For assay [1], the system named is primary culture of rat embryo mesencephalic cells (microglia, astrocytes and neurons) exposed to LPS. The experiment in a line: Neuroprotective effect on damage induced by LPS on culture of mesencephalic neurons (NO, TNF-α, IL-1β, TH positive neurons). Format: cell-based. Conditions: after 5 days of LPS exposure; for inhibition at 50 µM / inhibition at 10 µM: Rattus norvegicus, Neuron, 120 h, read-out: % reversion of TH positive neurons. In a few lines:
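E15 Wistar rat ventral mesencephalic cultures, day 7, pretreated 1 h with compound (0.1% DMSO) before LPS 10 ng/ml. NO (Griess) at 24 h and 5 days and IL-1β/TNF-α (ELISA) at 24 h, expressed vs LPS control = 100%; TH+ neurons counted by imaging at 5 days, vs non-intoxicated = 100%.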

Assay [2] deals with tyrosine hydroxylase positive mesencephalic neurons injured by 6-OHDA. The experiment in a line: Neuroprotective effect on damage induced by 6-OHDA on culture of mesencephalic neurons. It counts as cell-based. Conditions: Rattus norvegicus, Neuron, 6-OHDA 15 μM, 48h, read-out: % reversion of TH positive neurons (6-OHDA-mediated degradation of dopaminergic neurons). The protocol: The protective effect of compounds of the present disclosure was determined on 6-OHDA-mediated injury on mesencephalon neuronal cultures.
A female Wistar rat (Janvier; France) of 15 days gestation was terminated by cervical dislocation, the fetuses were removed from the uterus and their brains were harvested and placed in ice-cold medium (Leibovitz's L15 medium, Gibco). Only ventral mesencephalic flexure was used for the cell preparations. The midbrain was dissociated by trypsinization. The reaction was stopped, and the suspension was triturated and centrifuged. The pellet of dissociated cells was resuspended in chemically defined medium consisted of Neurobasal (Gibco, 21103049), containing B27 supplement (Gibco, A3582801) and L-glutamine (Gibco, 25030081), 10 ng/ml (BDNF; Pepro Tech, France, 450-02) and 1 ng/ml (GDNF; Pepro Tech, 450-51).
Viable primary rat embryo mesencephalic cells were counted and seeded on 96-multi-wells plate precoated with poly-L-lysine. Cells were maintained in a humidified incubator at 37° C. in 5% CO2-95% air atmosphere and medium changed on day 2. On day 6, the culture medium was removed and replaced by new media without neurotrophic factors containing the compounds of the present disclosure (50-10 μM) or vehicle (0.1% DMSO). After 1h exposure, injury of mesencephalon neuronal cultures was induced by 6-OHDA (15 μM) for further 48h. A mixture of the growth factors GDNF (1 ng/ml) and BDNF (10 ng/ml) were used as reference compound. On day 8, the tyrosine hydroxylase positive neurons were evaluated. Cultures were fixed 30 min at 4° C. with paraformaldehyde in PBS (4%, Sigma). After, cells were permeabilized with 0.1% Triton X100 for 30 min, saturated with PBS containing 3% of BSA (bovine serum albumin) and incubated 2h with anti-tyrosine hydroxylase antibody (Sigma, 1:10000; clone TH-2) at 1/10000 in PBS containing 0.5% of BSA. Cells were washed three times with PBS containing 0.5% of BSA and incubated 1h with goat anti mouse antibody coupled with AF488 (Invitrogen A11001) diluted at 1/1000 in PBS containing 0.5% of BSA. Finally, nuclei were stained with DAPI (Thermo fisher, D1306) at 1/1000 in PBS containing 0.5% of BSA. After rinsing with PBS, the plate was visualized and examined with Cell Insight HCS (Thermo Scientific) to determine the number of tyrosine hydroxylase positive cells per well.
The results for each well were expressed as a percentage by setting the density of tyrosine hydroxylase positive cells under control conditions to 100%. Then the result for each condition was reported as mean±SEM from 4 independent cultures.
A global analysis of the data was performed using a one-way analysis of variance (ANOVA), followed by Fisher's Protected Least Significant Difference when applicable. The level of significance was set to p<0.05.

Where two headings read alike, the source gives them in different places.

On to `COC(=O)CC(C(C)=O)C(=O)SCCNC(=O)CCNC(=O)[C@H](O)C(C)(C)CO` (stereo partly drawn) [Compound 410], for which the “% decrease in NO release relative to LPS alone” value in assay [1] (50 uM) was no less than 10%. In addition, the inhibition at 50 µM in assay [1] (50 uM, list at threshold 15%) is no less than 15%.
Regarding `CC(C)(COC(=O)OCC[N+](C)(C)C)[C@@H](O)C(=O)NCCC(=O)NCCSC(=O)CCC(=O)O` [Compound 116, [2-([[(3R)-3-[[2-([2-[(3-carboxypropanoyl)sulfanyl]ethyl]carbamoyl)ethyl]carbamoyl]-3-hydroxy-2,2-dimethylpropoxy]carbonyl]oxy)ethyl]trimethylazanium], the inhibition at 10 µM in assay [2] was no less than 30%; in assay [1] (10 uM, list at threshold 15%) it was no less than 15%.
In the case of `CC(C)(CO)[C@@H](O)C(=O)NCCC(=O)NCCSC(=O)CCCN` [Compound 370, (2R)—N-[2-([2-[(4-aminobutanoyl)sulfanyl]ethyl]carbamoyl)ethyl]-2,4-dihydroxy-3,3-dimethylbutanamide], in assay [2], the inhibition at 50 µM is no less than 30%.
Take `CC(=O)OCC(C)(C)[C@@H](O)C(=O)NCCC(=O)NCCSC(=O)CC(=O)CCC(=O)O` [Compound 140, 6-[(2-[3-[(2R)-4-(acetyloxy)-2-hydroxy-3,3-dimethylbutanamido]propanamido]ethyl)sulfanyl]-4,6-dioxohexanoic acid]: the inhibition at 50 µM in assay [2] is no less than 30%; in assay [1] (50 uM, list at threshold 15%), no less than 15%; in assay [1] (50 uM, list at threshold 50%), no less than 50%.
For the molecule `CC(=O)SCCNC(=O)CCNC(=O)[C@H](O)C(C)(C)COC(=O)CN` [Compound 560, (3R)-3-[(2-[[2-(acetylsulfanyl)ethyl]carbamoyl]ethyl)carbamoyl]-3-hydroxy-2,2-dimethylpropyl 2-aminoacetate], the inhibition at 10 µM in assay [2] is no less than 30%.
As to `CC(C)(CO)[C@@H](O)C(=O)NCCC(=O)NCCSC(=O)CCC(=O)O` [Compound 1, (R)-4-((2-(3-(2,4-dihydroxy-3,3-dimethylbutanamido)propanamido)ethyl)thio)-4-oxobutanoic acid], the inhibition at 10 µM in assay [2] is no less than 10%.
In the case of `CC(C)(CO)[C@@H](O)C(=O)NCCC(=O)NCCSC(CC(=O)OCC[N+](C)(C)C)C(=O)O` (stereo partly drawn) [Compound 51, [2-([3-carboxy-3-[(2-[3-[(2R)-2,4-dihydroxy-3,3-dimethylbutanamido]propanamido]ethyl)sulfanyl]propanoyl]oxy)ethyl]trimethylazanium], the “% decrease in NO release relative to LPS alone” value in assay [1] (10 uM) is on record as no less than 5%. Also, the inhibition at 50 µM in assay [1] (50 uM, list at threshold 15%) was no less than 15%; in assay [1] (50 uM, list at threshold 50%), no less than 50%.
As for `C[C@@H](O)CC(=O)SCCNC(=O)CCNC(=O)[C@H](O)C(C)(C)CO` [Compound 38, S-2-{3-[(R)-2,4-dihydroxy-3,3-dimethylbutyrylamino]propionylamino} ethyl (R)-3-hydroxybutanethioate], the inhibition at 10 µM was no less than 30% in assay [2] and no less than 15% in assay [1] (10 uM, list at threshold 15%).
Consider `CC(C)(CO)[C@@H](O)C(=O)NCCC(=O)NCCSC(=O)[C@@H](N)Cc1ccc(O)c(O)c1` [Compound 371, (2R)—N-[2-[(2-[[(2S)-2-amino-3-(3,4-dihydroxyphenyl)propanoyl]sulfanyl]ethyl)carbamoyl]ethyl]-2,4-dihydroxy-3,3-dimethylbutanamide], for which, in assay [2], the inhibition at 50 µM is no less than 30%.
On to `CC(=O)SCCNC(=O)CCNC(=O)[C@H](O)C(C)(C)COC(=O)[C@@H](N)Cc1ccc(O)c(O)c1` [Compound 498, (3R)-3-[(2-[[2-(acetylsulfanyl)ethyl]carbamoyl]ethyl)carbamoyl]-3-hydroxy-2,2-dimethylpropyl (2S)-2-amino-3-(3,4-dihydroxyphenyl)propanoate], for which the inhibition at 50 µM was no less than 30% in assay [2] and no less than 15% in assay [1] (50 uM, list at threshold 15%).
`C[C@@H](O)CC(=O)CC(=O)SCCNC(=O)CCNC(=O)[C@H](O)C(C)(C)CO` [Compound 42, (2R)-2,4-dihydroxy-N-[2-[(2-[[(5R)-5-hydroxy-3-oxohexanoyl]sulfanyl]ethyl)carbamoyl]ethyl]-3,3-dimethylbutanamide]: the inhibition at 50 µM was no less than 30% in assay [2]; no less than 15% in assay [1] (50 uM, list at threshold 15%); no less than 50% in assay [1] (50 uM, list at threshold 50%). Also, the “% decrease in NO release relative to LPS alone” value in assay [1] (50 uM) is given as no less than 5%.
In the case of `COC(=O)CCC(=O)SCCNC(=O)CCNC(=O)[C@H](O)C(C)(C)COC(C)=O` [Compound 138], the inhibition at 50 µM in assay [1] (50 uM, list at threshold 15%) is no less than 15%; in assay [1] (50 uM, list at threshold 50%) it was no less than 50%.

These data come from patent US20230107216A1, “PANTETHEINE DERIVATIVES AND USES THEREOF” (Comet Therapeutics, Inc., priority 2018, published 2023).
